Source: the supplement of paper PMC10307832

What was measured:
Assay in all cases: relative viability (nuclei count vs DMSO), 5 days (fraction); higher = more cells survive
JZL-184 + Trametinib = compound: C1CN(CCC1C(C2=CC3=C(C=C2)OCO3)(C4=CC5=C(C=C4)OCO5)O)C(=O)OC6=CC=C(C=C6)[N+](=O)[O-] [JZL-184] + CC(=O)Nc1cccc(-n2c(=O)n(C3CC3)c(=O)c3c(Nc4ccc(I)cc4F)n(C)c(=O)c(C)c32)c1 [Trametinib] (partner 0.02 µM)
Method in brief: (§1)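 Relative viability is defined as nuclei in treated wells over nuclei in vehicle wells. Duplicate plates were run and medians reported. Lung cancer cell lines in 1536-well plates were dosed by pin tool one day after seeding, with one drug or with a fixed anchor-drug dose plus five library-drug doses (not always all listed) in √10 steps, and nuclei were counted after 5 days.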

JZL-184 + AZD7762 = compound: C1CN(CCC1C(C2=CC3=C(C=C2)OCO3)(C4=CC5=C(C=C4)OCO5)O)C(=O)OC6=CC=C(C=C6)[N+](=O)[O-] [JZL-184] + NC(=O)Nc1cc(-c2cccc(F)c2)sc1C(=O)N[C@H]1CCCNC1 [AZD7762] (partner 0.2 µM)
Method in brief: as §1

JZL-184 + OSI-027 = compound: C1CN(CCC1C(C2=CC3=C(C=C2)OCO3)(C4=CC5=C(C=C4)OCO5)O)C(=O)OC6=CC=C(C=C6)[N+](=O)[O-] [JZL-184] + COc1cccc2cc(-c3nc([C@H]4CC[C@H](C(=O)O)CC4)n4ncnc(N)c34)[nH]c12 [OSI-027] (partner 0.5 µM)
Method in brief: as §1

JZL-184 + Pemetrexed = compound: C1CN(CCC1C(C2=CC3=C(C=C2)OCO3)(C4=CC5=C(C=C4)OCO5)O)C(=O)OC6=CC=C(C=C6)[N+](=O)[O-] [JZL-184] + Nc1nc2[nH]cc(CCc3ccc(C(=O)N[C@@H](CCC(=O)O)C(=O)O)cc3)c2c(=O)[nH]1 [Pemetrexed] (partner 0.2 µM)
Method in brief: as §1

JZL-184 + Olaparib = compound: C1CN(CCC1C(C2=CC3=C(C=C2)OCO3)(C4=CC5=C(C=C4)OCO5)O)C(=O)OC6=CC=C(C=C6)[N+](=O)[O-] [JZL-184] + O=C(c1cc(Cc2n[nH]c(=O)c3ccccc23)ccc1F)N1CCN(C(=O)C2CC2)CC1 [Olaparib] (partner 8 µM)
Method in brief: as §1

JZL-184 + Decitabine = compound: C1CN(CCC1C(C2=CC3=C(C=C2)OCO3)(C4=CC5=C(C=C4)OCO5)O)C(=O)OC6=CC=C(C=C6)[N+](=O)[O-] [JZL-184] + Nc1ncn([C@H]2C[C@H](O)[C@@H](CO)O2)c(=O)n1 [Decitabine] (partner 2 µM)
Method in brief: as §1

JZL-184 + Palbociclib = compound: C1CN(CCC1C(C2=CC3=C(C=C2)OCO3)(C4=CC5=C(C=C4)OCO5)O)C(=O)OC6=CC=C(C=C6)[N+](=O)[O-] [JZL-184] + CC(=O)c1c(C)c2cnc(Nc3ccc(N4CCNCC4)cn3)nc2n(C2CCCC2)c1=O [Palbociclib] (partner 0.5 µM)
Method in brief: as §1

JZL-184 + Vorinostat = compound: C1CN(CCC1C(C2=CC3=C(C=C2)OCO3)(C4=CC5=C(C=C4)OCO5)O)C(=O)OC6=CC=C(C=C6)[N+](=O)[O-] [JZL-184] + O=C(CCCCCCC(=O)Nc1ccccc1)NO [Vorinostat] (partner 1 µM)
Method in brief: as §1

JZL-184 + Tozasertib = compound: C1CN(CCC1C(C2=CC3=C(C=C2)OCO3)(C4=CC5=C(C=C4)OCO5)O)C(=O)OC6=CC=C(C=C6)[N+](=O)[O-] [JZL-184] + Cc1cc(Nc2cc(N3CCN(C)CC3)nc(Sc3ccc(NC(=O)C4CC4)cc3)n2)n[nH]1 [Tozasertib] (partner 0.1 µM)
Method in brief: as §1

JZL-184 = compound: C1CN(CCC1C(C2=CC3=C(C=C2)OCO3)(C4=CC5=C(C=C4)OCO5)O)C(=O)OC6=CC=C(C=C6)[N+](=O)[O-] [JZL-184]
Method in brief: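 For viability, nuclei in each treated well were divided by nuclei in vehicle wells and the median across plates was taken. Lung cancer cell lines in 1536-well plates were pinned with five library-drug doses (not always all listed) spaced by √10, cultured 5 days without medium change, and imaged at 4× after Hoechst staining, with plates passing only at control CV below 25% and at least one doubling.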

JZL-184 + Pictilisib = compound: C1CN(CCC1C(C2=CC3=C(C=C2)OCO3)(C4=CC5=C(C=C4)OCO5)O)C(=O)OC6=CC=C(C=C6)[N+](=O)[O-] [JZL-184] + CS(=O)(=O)N1CCN(Cc2cc3nc(-c4cccc5[nH]ncc45)nc(N4CCOCC4)c3s2)CC1 [Pictilisib] (partner 1 µM)
Method in brief: as §1

JZL-184 + Lapatinib = compound: C1CN(CCC1C(C2=CC3=C(C=C2)OCO3)(C4=CC5=C(C=C4)OCO5)O)C(=O)OC6=CC=C(C=C6)[N+](=O)[O-] [JZL-184] + CS(=O)(=O)CCNCc1ccc(-c2ccc3ncnc(Nc4ccc(OCc5cccc(F)c5)c(Cl)c4)c3c2)o1 [Lapatinib] (partner 2 µM)
Method in brief: as §1

JZL-184 + Foretinib = compound: C1CN(CCC1C(C2=CC3=C(C=C2)OCO3)(C4=CC5=C(C=C4)OCO5)O)C(=O)OC6=CC=C(C=C6)[N+](=O)[O-] [JZL-184] + COc1cc2c(Oc3ccc(NC(=O)C4(C(=O)Nc5ccc(F)cc5)CC4)cc3F)ccnc2cc1OCCCN1CCOCC1 [Foretinib] (partner 0.25 µM)
Method in brief: as §1

JZL-184 + Bortezomib = compound: C1CN(CCC1C(C2=CC3=C(C=C2)OCO3)(C4=CC5=C(C=C4)OCO5)O)C(=O)OC6=CC=C(C=C6)[N+](=O)[O-] [JZL-184] + CC(C)C[C@H](NC(=O)[C@H](Cc1ccccc1)NC(=O)c1cnccn1)B(O)O [Bortezomib] (partner 0.002 µM)
Method in brief: as §1

JZL-184 + Linsitinib = compound: C1CN(CCC1C(C2=CC3=C(C=C2)OCO3)(C4=CC5=C(C=C4)OCO5)O)C(=O)OC6=CC=C(C=C6)[N+](=O)[O-] [JZL-184] + C[C@]1(O)C[C@@H](c2nc(-c3ccc4ccc(-c5ccccc5)nc4c3)c3c(N)nccn32)C1 [Linsitinib] (partner 1 µM)
Method in brief: as §1

JZL-184 + Navitoclax = compound: C1CN(CCC1C(C2=CC3=C(C=C2)OCO3)(C4=CC5=C(C=C4)OCO5)O)C(=O)OC6=CC=C(C=C6)[N+](=O)[O-] [JZL-184] + CC1(C)CCC(c2ccc(Cl)cc2)=C(CN2CCN(c3ccc(C(=O)NS(=O)(=O)c4ccc(N[C@H](CCN5CCOCC5)CSc5ccccc5)c(S(=O)(=O)C(F)(F)F)c4)cc3)CC2)C1 [Navitoclax] (partner 0.5 µM)
Method in brief: as §1

JZL-184 + Alpelisib = compound: C1CN(CCC1C(C2=CC3=C(C=C2)OCO3)(C4=CC5=C(C=C4)OCO5)O)C(=O)OC6=CC=C(C=C6)[N+](=O)[O-] [JZL-184] + Cc1nc(NC(=O)N2CCC[C@H]2C(N)=O)sc1-c1ccnc(C(C)(C)C(F)(F)F)c1 [Alpelisib] (partner 2 µM)
Method in brief: as §1

JZL-184 + Crizotinib = compound: C1CN(CCC1C(C2=CC3=C(C=C2)OCO3)(C4=CC5=C(C=C4)OCO5)O)C(=O)OC6=CC=C(C=C6)[N+](=O)[O-] [JZL-184] + C[C@@H](Oc1cc(-c2cnn(C3CCNCC3)c2)cnc1N)c1c(Cl)ccc(F)c1Cl [Crizotinib] (partner 1 µM)
Method in brief: as §1

Cell Line: NCI-H1648
- relative viability (JZL-184 + Trametinib; first compound 0.04 µM): 0.402
- relative viability (JZL-184 + Trametinib; first compound 0.4 µM): 0.413
- relative viability (JZL-184 + Trametinib; first compound 1.265 µM): 0.481
- relative viability (JZL-184 + Trametinib; first compound 4 µM): 0.445
- relative viability (JZL-184 + AZD7762; first compound 0.04 µM): 0.694
- relative viability (JZL-184 + AZD7762; first compound 0.4 µM): 0.719
- relative viability (JZL-184 + AZD7762; first compound 1.265 µM): 0.824
- relative viability (JZL-184 + AZD7762; first compound 4 µM): 0.706
- relative viability (JZL-184 + OSI-027; first compound 0.4 µM): 0.24
- relative viability (JZL-184 + OSI-027; first compound 1.265 µM): 0.257
- relative viability (JZL-184 + OSI-027; first compound 4 µM): 0.223
- relative viability (JZL-184 + Pemetrexed; first compound 0.04 µM): 0.712
- relative viability (JZL-184 + Pemetrexed; first compound 0.4 µM): 0.832
- relative viability (JZL-184 + Pemetrexed; first compound 1.265 µM): 0.651
- relative viability (JZL-184 + Pemetrexed; first compound 4 µM): 0.564
- relative viability (JZL-184 + Olaparib; first compound 0.04 µM): 1.03
- relative viability (JZL-184 + Olaparib; first compound 0.4 µM): 0.853
- relative viability (JZL-184 + Olaparib; first compound 1.265 µM): 0.783
- relative viability (JZL-184 + Olaparib; first compound 4 µM): 0.626
- relative viability (JZL-184 + Decitabine; first compound 0.04 µM): 0.437
- relative viability (JZL-184 + Decitabine; first compound 0.4 µM): 0.551
- relative viability (JZL-184 + Decitabine; first compound 1.265 µM): 0.546
- relative viability (JZL-184 + Decitabine; first compound 4 µM): 0.549
- relative viability (JZL-184 + Palbociclib; first compound 0.04 µM): 0.271
- relative viability (JZL-184 + Palbociclib; first compound 0.4 µM): 0.238
- relative viability (JZL-184 + Palbociclib; first compound 1.265 µM): 0.233
- relative viability (JZL-184 + Palbociclib; first compound 4 µM): 0.297
- relative viability (JZL-184 + Vorinostat; first compound 0.04 µM): 0.307
- relative viability (JZL-184 + Vorinostat; first compound 0.4 µM): 0.434
- relative viability (JZL-184 + Vorinostat; first compound 1.265 µM): 0.754
- relative viability (JZL-184 + Vorinostat; first compound 4 µM): 0.421
- relative viability (JZL-184 + Tozasertib; first compound 0.4 µM): 0.491
- relative viability (JZL-184 + Tozasertib; first compound 1.265 µM): 0.466
- relative viability (JZL-184 + Tozasertib; first compound 4 µM): 0.538
- relative viability (JZL-184; 0.04 µM): 0.593
- relative viability (JZL-184; 0.4 µM): 0.893
- relative viability (JZL-184; 1.265 µM): 1.07
- relative viability (JZL-184; 4 µM): 1.08

Cell Line: EBC-1
- relative viability (JZL-184 + Pictilisib; first compound 0.04 µM): 0.347
- relative viability (JZL-184 + Pictilisib; first compound 0.4 µM): 0.287
- relative viability (JZL-184 + Pictilisib; first compound 1.265 µM): 0.506
- relative viability (JZL-184 + Pictilisib; first compound 4 µM): 0.364
- relative viability (JZL-184 + Lapatinib; first compound 0.04 µM): 0.176
- relative viability (JZL-184 + Lapatinib; first compound 0.4 µM): 0.239
- relative viability (JZL-184 + Lapatinib; first compound 1.265 µM): 0.204
- relative viability (JZL-184 + Lapatinib; first compound 4 µM): 0.209
- relative viability (JZL-184 + Foretinib; first compound 0.04 µM): 0.101
- relative viability (JZL-184 + Foretinib; first compound 0.4 µM): 0.0992
- relative viability (JZL-184 + Foretinib; first compound 1.265 µM): 0.0837
- relative viability (JZL-184 + Foretinib; first compound 4 µM): 0.106
- relative viability (JZL-184 + Bortezomib; first compound 0.04 µM): 0.595
- relative viability (JZL-184 + Bortezomib; first compound 0.4 µM): 0.514
- relative viability (JZL-184 + Bortezomib; first compound 1.265 µM): 0.558
- relative viability (JZL-184 + Bortezomib; first compound 4 µM): 0.455
- relative viability (JZL-184 + Linsitinib; first compound 0.04 µM): 0.971
- relative viability (JZL-184 + Linsitinib; first compound 0.4 µM): 0.848
- relative viability (JZL-184 + Linsitinib; first compound 1.265 µM): 0.929
- relative viability (JZL-184 + Linsitinib; first compound 4 µM): 0.832
- relative viability (JZL-184 + Olaparib; first compound 0.04 µM): 0.655
- relative viability (JZL-184 + Olaparib; first compound 0.4 µM): 0.744
- relative viability (JZL-184 + Olaparib; first compound 1.265 µM): 0.671
- relative viability (JZL-184 + Olaparib; first compound 4 µM): 0.666
- relative viability (JZL-184 + Navitoclax; first compound 0.04 µM): 0.442
- relative viability (JZL-184 + Navitoclax; first compound 0.4 µM): 0.427
- relative viability (JZL-184 + Navitoclax; first compound 1.265 µM): 0.45
- relative viability (JZL-184 + Navitoclax; first compound 4 µM): 0.342
- relative viability (JZL-184 + Alpelisib; first compound 0.04 µM): 0.982
- relative viability (JZL-184 + Alpelisib; first compound 0.4 µM): 0.795
- relative viability (JZL-184 + Alpelisib; first compound 1.265 µM): 0.802
- relative viability (JZL-184 + Alpelisib; first compound 4 µM): 0.754
- relative viability (JZL-184 + Crizotinib; first compound 0.04 µM): 0.21
- relative viability (JZL-184 + Crizotinib; first compound 0.4 µM): 0.189
- relative viability (JZL-184 + Crizotinib; first compound 1.265 µM): 0.195
- relative viability (JZL-184 + Crizotinib; first compound 4 µM): 0.193
- relative viability (JZL-184; 0.04 µM): 1.06
- relative viability (JZL-184; 0.4 µM): 0.992
- relative viability (JZL-184; 1.265 µM): 0.995
- relative viability (JZL-184; 4 µM): 1.03
